# Experimental data reported in patent US20180008575A1, “METHODS OF TREATING BINGE EATING DISORDER” (Neurovance, Inc., priority 2016, published 2018).
# Tests used:
# [1] = molecular target: norepinephrine reuptake (NE) (Homo sapiens, UniProt P23975); experiment: norepinephrine reuptake inhibition; type: biochemical; conditions: unbalanced triple reuptake inhibitor
# dopamine reuptake (DA) = dopamine reuptake (DA) (Homo sapiens, UniProt Q01959); experiment: dopamine reuptake inhibition; type: biochemical; conditions: fraction of the potency towards NE reuptake
# Sequence of dopamine reuptake (DA) (Q01959 whole entry): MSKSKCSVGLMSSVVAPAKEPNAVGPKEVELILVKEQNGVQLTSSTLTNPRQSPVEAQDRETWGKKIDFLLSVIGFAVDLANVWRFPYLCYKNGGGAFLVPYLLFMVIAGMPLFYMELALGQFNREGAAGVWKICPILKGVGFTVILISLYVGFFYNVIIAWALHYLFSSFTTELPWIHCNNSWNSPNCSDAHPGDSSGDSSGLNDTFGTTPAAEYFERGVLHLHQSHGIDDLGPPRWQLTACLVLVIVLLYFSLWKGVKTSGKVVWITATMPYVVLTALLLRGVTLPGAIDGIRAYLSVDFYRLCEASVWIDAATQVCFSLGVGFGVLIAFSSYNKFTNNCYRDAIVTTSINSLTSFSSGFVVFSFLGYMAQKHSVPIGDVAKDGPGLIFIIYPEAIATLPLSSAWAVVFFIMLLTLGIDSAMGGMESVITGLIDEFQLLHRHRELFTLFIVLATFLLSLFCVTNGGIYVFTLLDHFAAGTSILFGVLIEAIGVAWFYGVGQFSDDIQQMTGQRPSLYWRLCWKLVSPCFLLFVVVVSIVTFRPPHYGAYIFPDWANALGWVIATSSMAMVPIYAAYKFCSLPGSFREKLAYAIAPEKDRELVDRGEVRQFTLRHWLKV
# [2] = molecular target: serotonin reuptake (5-HT) (Homo sapiens, UniProt P31645); experiment: serotonin reuptake inhibition; type: biochemical; conditions: fraction of the potency towards NE reuptake
# Sequence of serotonin reuptake (5-HT) (P31645 whole entry): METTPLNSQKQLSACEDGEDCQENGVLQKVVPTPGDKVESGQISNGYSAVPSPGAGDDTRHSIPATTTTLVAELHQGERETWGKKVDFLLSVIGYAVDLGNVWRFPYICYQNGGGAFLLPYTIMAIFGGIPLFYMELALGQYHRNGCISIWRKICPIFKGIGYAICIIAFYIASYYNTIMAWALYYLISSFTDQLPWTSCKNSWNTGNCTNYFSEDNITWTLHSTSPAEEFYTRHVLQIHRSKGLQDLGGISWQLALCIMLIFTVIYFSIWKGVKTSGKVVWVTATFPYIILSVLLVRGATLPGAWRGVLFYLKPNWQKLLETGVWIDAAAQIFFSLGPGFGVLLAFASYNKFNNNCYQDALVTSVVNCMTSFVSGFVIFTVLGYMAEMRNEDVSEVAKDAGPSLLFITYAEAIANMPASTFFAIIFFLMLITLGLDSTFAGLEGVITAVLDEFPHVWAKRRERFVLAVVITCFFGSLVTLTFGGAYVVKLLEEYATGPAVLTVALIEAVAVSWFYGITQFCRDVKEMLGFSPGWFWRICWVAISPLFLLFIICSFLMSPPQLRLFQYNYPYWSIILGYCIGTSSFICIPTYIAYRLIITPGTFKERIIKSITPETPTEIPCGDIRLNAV
# [3] = molecular target: T1, monoamine oxidase A (MAO A) (Homo sapiens, UniProt P21397); experiment: metabolic pathway
# T1 sequence (P21397 1-527): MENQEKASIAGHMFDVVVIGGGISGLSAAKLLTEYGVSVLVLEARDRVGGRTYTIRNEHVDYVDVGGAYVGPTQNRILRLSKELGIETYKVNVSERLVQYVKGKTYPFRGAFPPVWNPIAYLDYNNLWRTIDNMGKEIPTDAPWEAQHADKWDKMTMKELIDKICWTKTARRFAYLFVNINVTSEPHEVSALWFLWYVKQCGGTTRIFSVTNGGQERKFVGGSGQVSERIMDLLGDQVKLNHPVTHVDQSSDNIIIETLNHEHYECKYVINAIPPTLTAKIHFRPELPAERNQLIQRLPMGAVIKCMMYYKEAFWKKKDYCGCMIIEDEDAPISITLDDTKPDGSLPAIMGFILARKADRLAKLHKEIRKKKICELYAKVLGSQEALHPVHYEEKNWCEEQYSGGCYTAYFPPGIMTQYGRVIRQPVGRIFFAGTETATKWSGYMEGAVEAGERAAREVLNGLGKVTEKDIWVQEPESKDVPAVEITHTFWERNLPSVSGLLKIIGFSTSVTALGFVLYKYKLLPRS
# Sequence of norepinephrine reuptake (NE) (P23975 whole entry): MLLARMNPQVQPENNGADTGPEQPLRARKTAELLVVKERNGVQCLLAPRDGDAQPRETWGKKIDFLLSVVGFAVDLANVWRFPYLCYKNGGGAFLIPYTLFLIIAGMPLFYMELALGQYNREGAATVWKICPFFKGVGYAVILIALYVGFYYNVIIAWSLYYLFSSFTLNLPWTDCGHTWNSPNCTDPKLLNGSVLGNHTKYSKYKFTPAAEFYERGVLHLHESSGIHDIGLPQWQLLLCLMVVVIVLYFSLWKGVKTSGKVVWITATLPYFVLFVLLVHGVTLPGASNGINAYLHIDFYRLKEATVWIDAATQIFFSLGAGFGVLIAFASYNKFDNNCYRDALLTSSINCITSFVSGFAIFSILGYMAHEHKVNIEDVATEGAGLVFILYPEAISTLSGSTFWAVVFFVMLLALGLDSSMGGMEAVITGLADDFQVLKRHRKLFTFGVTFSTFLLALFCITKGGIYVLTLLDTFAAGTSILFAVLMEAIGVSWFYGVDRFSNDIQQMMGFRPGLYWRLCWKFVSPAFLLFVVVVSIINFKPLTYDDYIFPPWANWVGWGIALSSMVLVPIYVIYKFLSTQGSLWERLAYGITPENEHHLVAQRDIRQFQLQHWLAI
smiles,measurement,setting,value
"c1ccc2cc([C@]34CNC[C@H]3C4)ccc2c1 [(1R,5S)-1-(naphthalen-2-yl)-3-azabicyclo[3.1.0]hexane]","potency towards norepinephrine reuptake (relative rank among NE, DA, 5-HT)",[1],most potency towards norepinephrine reuptake
same,potency towards dopamine reuptake relative to norepinephrine reuptake,dopamine reuptake (DA),one-sixth
same,potency towards serotonin reuptake relative to norepinephrine reuptake,[2],one-fourteenth
same,primary metabolising enzyme,[3],primarily metabolized by monoamine oxidase A (MAO A)
